Literature values, collected in patent publication US6844014B1, “Herbal healing lotion for veterinary use” (priority 2002, dated 2005).

Conditions: treatment by previous veterinarian before the office visit

Structure (SMILES): C[C@]12CCC(=O)C=C1CC[C@@H]1[C@@H]2C(=O)C[C@@]2(C)[C@H]1CC[C@]2(O)C(=O)CO [cortisone]
- result of previous treatment of the lesion: no positive result was obtained
